# Results reported in patent US8148572B2, “Compounds” (AstraZeneca AB, priority 2005, dated 2012).
# Target: T1, rhCRTh2 (Homo sapiens, UniProt Q9Y5Y4)
# T1 construct: expressed in transfected cells; host or cells: HEK cells (membrane preparation)
# T1 sequence (Q9Y5Y4 1-395): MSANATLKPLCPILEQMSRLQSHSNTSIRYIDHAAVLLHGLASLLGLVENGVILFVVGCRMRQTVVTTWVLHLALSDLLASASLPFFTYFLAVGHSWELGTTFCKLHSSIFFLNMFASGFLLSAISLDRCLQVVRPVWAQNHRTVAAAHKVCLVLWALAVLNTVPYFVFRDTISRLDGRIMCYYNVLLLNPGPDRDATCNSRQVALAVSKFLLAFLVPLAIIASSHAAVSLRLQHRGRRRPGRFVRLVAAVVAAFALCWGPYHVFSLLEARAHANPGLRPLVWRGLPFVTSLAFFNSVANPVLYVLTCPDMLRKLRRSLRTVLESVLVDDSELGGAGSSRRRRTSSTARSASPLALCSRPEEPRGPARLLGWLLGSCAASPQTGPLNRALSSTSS
# Assay: Ligand Binding Assay ([3H]PGD2 displacement, SPA beads coated with HEK cell membranes)
# Conditions: [3H]PGD2 binding to HEK cell membranes containing CRTh2; read-out: pIC50 value (converted)
# Procedure: [^3H]PGD2 was purchased from Perkin Elmer Life Sciences with a specific activity of 100-210 Ci/mmol. All other chemicals were of analytical grade.
# HEK cells expressing rhCRTh2/Gα16 were routinely maintained in DMEM containing 10% Foetal Bovine Serum (HyClone), 1 mg/ml geneticin, 2 mM L-glutamine and 1% non-essential amino acids. For the preparation of membranes, the adherent transfected HEKcells were grown to confluence in two layer tissue culture factories (Fisher, catalogue number TKT-170-070E). Maximal levels of receptor expression were induced by addition of […] sodium butyrate for the last 18 hours of culture. The adherent cells were washed once with phosphate buffered saline (PBS, 50 ml per cell factory) and detached by the addition of 50 ml per cell factory of ice-cold membrane homogenisation buffer [20 mM HEPES (pH 7.4), 0.1 mM dithiothreitol, 1 mM EDTA, 0.1 mM phenyl methyl sulphonyl fluoride and 100 µg/ml bacitracin]. Cells were pelleted by centrifugation at 220×g for 10 minutes at 4° C., re-suspended in half the original volume of fresh membrane homogenisation buffer and disrupted using a Polytron homogeniser for 2×20 second bursts keeping the tube in ice at all times. […] The final pellet was re-suspended in 4 ml of membrane homogenisation buffer per cell factory used and the protein content determined. […]
# All assays were performed in Corning clear bottomed, white 96-well NBS plates (Fisher). […] (The optimum coating concentrations were determined for each batch of membranes) The beads were pelleted by centrifugation (800×g for 7 minutes at 4° C.), washed once with assay buffer (50 mM HEPES pH 7.4 containing 5 mM magnesium chloride) and finally re-suspended in assay buffer at a bead concentration of 10 mg/ml. […]
# Compounds and DK-PGD2 were dissolved in DMSO and diluted in the same solvent to 100× the required final concentration. […] The assay plate was incubated at room temperature for 2 hours and counted on a Wallac Microbeta liquid scintillation counter (1 minute per well).
row,IC50,Compound
1,7.94 nM,"CN(C)S(=O)(=O)c1ccc(Oc2cc(CC(=O)O)ccc2Cl)c(Cl)c1 [Example 7, (4-chloro-3-{2-chloro-4-[(dimethylamino)sulfonyl]phenoxy}phenyl)acetic acid]"
2,14.1 nM,"CS(=O)(=O)c1ccc(Oc2cc(CC(=O)O)ccc2Cl)c(F)c1 [Example 9, {4-chloro-3-[2-fluoro-4-(methylsulfonyl)phenoxy]phenyl}acetic acid]"
3,8.91 nM,"CS(=O)(=O)c1ccc(Oc2cc(CC(=O)O)ccc2Cl)c(C#N)c1 [Example 11, {4-chloro-3-[2-cyano-4-(methylsulfonyl)phenoxy]phenyl}acetic acid]"
